Assay results reported in publication PMC5431558, “Expression proteomics study to determine metallodrug targets and optimal drug combinations” (Scientific Reports, 2017).

Molecular target: T1, MAT2A (S-adenosylmethionine synthase isoform type-2) (Homo sapiens, UniProt P31153)
T1 construct: Recombinant human MAT2A (Addgene plasmid #53648), expressed in E. coli BL21 (DE3) Rosetta
Assay: MAT2A enzymatic assay with pre-incubation, phosphate colorimetric readout
Assay type: biochemical

T1 sequence (P31153 whole entry, canonical isoform): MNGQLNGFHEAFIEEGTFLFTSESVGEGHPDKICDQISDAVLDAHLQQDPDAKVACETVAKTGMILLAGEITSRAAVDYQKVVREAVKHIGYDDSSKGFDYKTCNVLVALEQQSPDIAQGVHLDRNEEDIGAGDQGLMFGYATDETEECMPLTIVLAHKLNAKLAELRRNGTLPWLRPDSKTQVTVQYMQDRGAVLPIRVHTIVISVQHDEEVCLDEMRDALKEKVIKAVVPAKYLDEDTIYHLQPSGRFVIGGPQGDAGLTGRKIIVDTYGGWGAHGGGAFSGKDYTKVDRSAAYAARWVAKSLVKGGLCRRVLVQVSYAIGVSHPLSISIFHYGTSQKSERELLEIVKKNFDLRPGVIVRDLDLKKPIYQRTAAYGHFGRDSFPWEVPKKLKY

## C1N2CN3CN1CP(C2)C3.Cc1ccccc1.[Cl][Ru][Cl] [RAPTA-T]
  IC50: 107 ± 13 µM
